pEC50, pIC50: −log10 of the molar value. Read-outs that look alike come from different tables or passages of the source.
Tests used:
[1] = molecular target: KRAS WT (Homo sapiens, UniProt P01116+P62937); assay: Ras-Raf disruption/FRET/MOA assay, KRAS WT; format: biochemical
Text: (§1) Disruption of B-Raf Ras-Binding Domain (BRAF^RBD) Interaction with K-Ras by Compounds of the Invention (Also Called a FRET Assay or an MOA Assay)
(§2) Note—The following protocol describes a procedure for monitoring disruption of K-Ras G12C (GMP-PNP) binding to BRAF^RBD by a compound of the invention. This protocol may also be executed substituting other Ras proteins or nucleotides, such as K-Ras G12D and K-Ras G13D.
(§3) The purpose of this biochemical assay was to measure the ability of test compounds to facilitate ternary complex formation between a nucleotide-loaded K-Ras isoform and Cyclophilin A; the resulting ternary complex disrupts binding to a BRAF^RBD construct, inhibiting K-Ras signaling through a RAF effector.
(§4) In assay buffer containing 25 mM HEPES pH 7.3, 0.002% Tween20, 0.1% BSA, 100 mM NaCl and 5 mM MgCl2, tagless Cyclophilin A, His6-K-Ras-GMPPNP, and GST-BRAF^RBD were combined in a 384-well assay plate at final concentrations of 25 μM, 12.5 nM, and 50 nM, respectively. Compound was present in plate wells as a 10-point 3-fold dilution series starting at a final concentration of 30 μM. After incubation at 25° C. for 3 hours, a mixture of anti-His Eu-W1024 and anti-GST allophycocyanin was then added to assay sample wells at final concentrations of 10 nM and 50 nM, respectively, and the reaction incubated for an additional 1.5 hours. […] Compounds that facilitate disruption of a K-Ras:RAF complex were identified as those eliciting a decrease in the TR-FRET ratio relative to DMSO control wells.

[2] = molecular target: KRAS G12D (Homo sapiens, UniProt P01116+P62937, G12D); assay: Ras-Raf disruption/FRET/MOA assay, KRAS G12D; format: biochemical
Sequence of KRAS G12D (P01116 1-169 isoform P01116-2 G12D limits assumed): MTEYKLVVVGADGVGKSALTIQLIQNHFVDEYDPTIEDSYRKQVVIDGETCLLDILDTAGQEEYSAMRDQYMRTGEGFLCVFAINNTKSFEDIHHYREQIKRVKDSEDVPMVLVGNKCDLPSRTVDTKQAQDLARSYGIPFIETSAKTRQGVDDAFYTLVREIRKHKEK
Sequence of KRAS G12D (P62937 whole entry): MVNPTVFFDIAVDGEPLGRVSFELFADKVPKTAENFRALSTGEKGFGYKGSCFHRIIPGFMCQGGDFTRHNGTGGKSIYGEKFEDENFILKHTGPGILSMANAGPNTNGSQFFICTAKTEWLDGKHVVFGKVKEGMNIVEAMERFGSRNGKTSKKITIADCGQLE
Text: as §1, §2, §3, §4

[3] = molecular target: KRAS G13D (Homo sapiens, UniProt P01116+P62937, G13D); assay: Ras-Raf disruption/FRET/MOA assay, KRAS G13D; format: biochemical
Sequence of KRAS G13D (P01116 1-169 isoform P01116-2 G13D limits assumed): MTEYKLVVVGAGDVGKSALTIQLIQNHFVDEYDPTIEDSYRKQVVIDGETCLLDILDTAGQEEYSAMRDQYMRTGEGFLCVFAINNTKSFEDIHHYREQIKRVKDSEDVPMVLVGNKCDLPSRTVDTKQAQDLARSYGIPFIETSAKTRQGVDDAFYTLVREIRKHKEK
Sequence of KRAS G13D (P62937 whole entry): as the sequence (P62937 whole entry) above
Text: as §1, §2, §3, §4

[4] = test system: AsPC-1 (K-Ras G12D); assay: Potency assay: pERK in AsPC-1 cells; format: cell-based; details: Homo sapiens
[5] = test system: AsPC-1 (K-Ras G12D); assay: CellTiter-Glo cell viability assay, AsPC-1; format: cell-based; details: Homo sapiens, ASPC1, 120 h
Procedure, shortened: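 Test compounds were dispensed directly onto seeded cells, and on day 5 plates were brought to room temperature for about 30 minutes before CellTiter-Glo luminescence was read. Signals were expressed as percent of the mean DMSO control and fitted with a four-parameter logistic model.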

[6] = molecular target: KRAS G12C (Homo sapiens, UniProt P01116+P62937, G12C); assay: Ras-Raf disruption/FRET/MOA assay, KRAS G12C; format: biochemical
Sequence of KRAS G12C (P01116 1-169 isoform P01116-2 G12C limits assumed): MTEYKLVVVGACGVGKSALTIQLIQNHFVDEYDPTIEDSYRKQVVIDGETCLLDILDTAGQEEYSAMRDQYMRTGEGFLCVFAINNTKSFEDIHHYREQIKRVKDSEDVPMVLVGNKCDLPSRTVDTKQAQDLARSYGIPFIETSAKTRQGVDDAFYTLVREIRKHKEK
Sequence of KRAS G12C (P62937 whole entry): as the sequence (P62937 whole entry) above
Text: as §1, §2, §3, §4

[7] = molecular target: T1, NRAS G12C (Homo sapiens, UniProt P01111+P62937, G12C); assay: Ras-Raf disruption/FRET/MOA assay, NRAS G12C; format: biochemical
T1 construct: His6
T1 sequence (P01111 whole entry G12C): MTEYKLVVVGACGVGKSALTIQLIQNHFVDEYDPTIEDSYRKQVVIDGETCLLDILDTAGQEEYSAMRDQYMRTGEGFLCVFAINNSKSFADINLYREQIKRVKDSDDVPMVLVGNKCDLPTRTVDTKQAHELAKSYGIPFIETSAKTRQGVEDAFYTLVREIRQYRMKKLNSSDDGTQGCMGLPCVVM
T1 sequence (P62937 whole entry): as the sequence (P62937 whole entry) above
Text: as §1, §2, §3, §4

[8] = molecular target: KRAS G12S (Homo sapiens, UniProt P01116+P62937, G12S); assay: Ras-Raf disruption/FRET/MOA assay, KRAS G12S; format: biochemical
Sequence of KRAS G12S (P01116 1-169 isoform P01116-2 G12S limits assumed): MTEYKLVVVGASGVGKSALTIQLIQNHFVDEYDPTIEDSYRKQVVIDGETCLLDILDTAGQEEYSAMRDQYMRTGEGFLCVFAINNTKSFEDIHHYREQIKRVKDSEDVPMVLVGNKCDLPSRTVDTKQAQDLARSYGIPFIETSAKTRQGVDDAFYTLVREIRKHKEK
Sequence of KRAS G12S (P62937 whole entry): as the sequence (P62937 whole entry) above
Text: as §1, §2, §3, §4

[9] = molecular target: KRAS G12V (Homo sapiens, UniProt P01116+P62937, G12V); assay: Ras-Raf disruption/FRET/MOA assay, KRAS G12V; format: biochemical
Sequence of KRAS G12V (P01116 1-169 isoform P01116-2 G12V limits assumed): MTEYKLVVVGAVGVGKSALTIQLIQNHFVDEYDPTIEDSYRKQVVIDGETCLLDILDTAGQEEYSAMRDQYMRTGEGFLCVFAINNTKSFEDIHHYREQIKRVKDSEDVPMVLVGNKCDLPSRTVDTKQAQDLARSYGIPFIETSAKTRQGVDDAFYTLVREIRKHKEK
Sequence of KRAS G12V (P62937 whole entry): as the sequence (P62937 whole entry) above
Text: as §1, §2, §3, §4

[10] = molecular target: KRAS G13C (Homo sapiens, UniProt P01116+P62937, G13C); assay: Ras-Raf disruption/FRET/MOA assay, KRAS G13C; format: biochemical
Sequence of KRAS G13C (P01116 1-169 isoform P01116-2 G13C limits assumed): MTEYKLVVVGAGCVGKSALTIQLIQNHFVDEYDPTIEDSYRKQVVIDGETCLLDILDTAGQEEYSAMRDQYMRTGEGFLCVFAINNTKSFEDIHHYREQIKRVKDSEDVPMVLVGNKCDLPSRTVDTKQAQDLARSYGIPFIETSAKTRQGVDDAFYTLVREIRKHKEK
Sequence of KRAS G13C (P62937 whole entry): as the sequence (P62937 whole entry) above
Text: as §1, §2, §3, §4

[11] = ASPC1, read-out: pERK EC50 (AsPC-1 KRAS G12D)
[12] = disruption of BRAF RBD binding, with Cyclophilin A, read-out: KRAS WT FRET IC50
[13] = disruption of BRAF RBD binding, with Cyclophilin A, read-out: KRAS G12D FRET IC50
[14] = disruption of BRAF RBD binding, with Cyclophilin A, read-out: KRAS G13D FRET IC50
[15] = ASPC1, AsPC-1 cells, K-Ras G12D, read-out: pERK EC50 (AsPC-1 KRAS G12D)
[16] = AsPC-1, K-Ras G12D, 5-day treatment, read-out: AsPC-1 Cell Viability IC50
[17] = disruption of BRAF RBD binding, with Cyclophilin A, read-out: KRAS G12C FRET IC50
[18] = NRAS G12C, read-out: NRAS G12C FRET data IC50
[19] = disruption of BRAF RBD binding, with Cyclophilin A, read-out: KRAS G12S FRET IC50
[20] = disruption of BRAF RBD binding, with Cyclophilin A, read-out: KRAS G12V FRET IC50
[21] = disruption of BRAF RBD binding, with Cyclophilin A, read-out: KRAS G13C FRET IC50

Sequence of KRAS WT (P01116 1-169 isoform P01116-2 limits assumed): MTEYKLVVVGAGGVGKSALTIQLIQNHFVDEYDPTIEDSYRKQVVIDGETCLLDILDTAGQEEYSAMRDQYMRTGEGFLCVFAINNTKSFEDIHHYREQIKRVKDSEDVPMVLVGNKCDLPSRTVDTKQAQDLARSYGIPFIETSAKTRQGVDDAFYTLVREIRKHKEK
Sequence of KRAS WT (P62937 whole entry, the tested form may be a part): as the sequence (P62937 whole entry) above

SMILES	pIC50 [1, 12]	pIC50 [2, 13]	pIC50 [3, 14]	pEC50 [4, 15]	pIC50 [5, 16]	pIC50 [6, 17]	pIC50 [7, 18]	pIC50 [8, 19]	pIC50 [9, 20]	pIC50 [10, 21]	also measured
CCn1c(-c2cnccc2COC)c2c3cc(ccc31)-c1cc(O)cc(c1)C[C@H](NC(=O)[C@H](C(C)C)N(C)C(=O)CN(C)C(=O)[C@@H]1N[C@@H]1c1ccccc1)C(=O)N1CCC[C@H](N1)C(=O)OCC(C)(C)C2 [Compound 110]	–	–	–	–	–	–	–	–	–	–	pIC50 [1]: 7.00 to 8.00; pIC50 [2]: 6.00 to 7.00; pIC50 [3]: 6.00 to 7.00; pEC50 [4, 11]: > 5.30; pIC50 ([5]; read-out: AsPC-1 Cell Viability IC50, AsPC-1, K-Ras G12D, 5-day treatment): 5.00 to 6.00; pIC50 [6]: 7.00 to 8.00; pIC50 ([7]; NRAS G12C FRET data IC50, NRAS G12C): 7.00 to 8.00; pIC50 [8]: 7.00 to 8.00; pIC50 [9]: 6.00 to 7.00; pIC50 [10]: 6.00 to 7.00
CCn1c(-c2cnccc2COC)c2c3cc(ccc31)-c1cc(O)cc(c1)C[C@H](NC(=O)[C@H](C(C)C)N(C)C(=O)[C@H]1CCN(C(=O)N3C[C@@H]3C(=O)OC)C1)C(=O)N1CCC[C@H](N1)C(=O)OCC(C)(C)C2 [Compound 94]	6.00 to 7.00	5.00 to 6.00	6.00 to 7.00	> 5.30	< 5.00	7.00 to 8.00	6.00 to 7.00	6.00 to 7.00	6.00 to 7.00	7.00 to 8.00	–
CCn1c(-c2cccnc2[C@H](C)OC)c2c3cc(ccc31)-c1cc(O)cc(c1)C[C@H](NC(=O)[C@H](C(C)C)N1CC[C@@]3(CCN(C[C@H]4CN4)C3)C1=O)C(=O)N1CCC[C@H](N1)C(=O)OCC(C)(C)C2 [Compound 193]	7.00 to 8.00	6.00 to 7.00	7.00 to 8.00	> 5.30	5.00 to 6.00	7.00 to 8.00	7.00 to 8.00	6.00 to 7.00	5.00 to 6.00	7.00 to 8.00	–
CCn1c(-c2cccnc2[C@H](C)OC)c2c3cc(ccc31)-c1cc(O)cc(c1)C[C@H](NC(=O)[C@H](C(C)C)N1CCC3(CCN(C(=O)[C@H]4CN4)CC3)C1=O)C(=O)N1CCC[C@H](N1)C(=O)OCC(C)(C)C2 [Compound 196]	7.00 to 8.00	6.00 to 7.00	7.00 to 8.00	> 5.30	5.00 to 6.00	> 8.00	> 8.00	6.00 to 7.00	6.00 to 7.00	7.00 to 8.00	–
CCn1c(-c2cccnc2[C@H](C)OC)c2c3cc(ccc31)-c1cc(O)cc(c1)C[C@H](NC(=O)[C@H](C(C)C)N1CC[C@]3(CCN(C[C@@H]4CN4)C3)C1=O)C(=O)N1CCC[C@H](N1)C(=O)OCC(C)(C)C2 [Compound 176]	7.00 to 8.00	6.00 to 7.00	7.00 to 8.00	> 5.30	5.00 to 6.00	7.00 to 8.00	7.00 to 8.00	7.00 to 8.00	6.00 to 7.00	7.00 to 8.00	–
CCn1c(-c2cccnc2[C@H](C)OC)c2c3cc(ccc31)-c1cc(O)cc(c1)C[C@H](NC(=O)[C@H](C(C)C)N(C)C(=O)[C@@H]1CN(C(=O)[C@H]3CN3)C[C@@H]1C)C(=O)N1CCC[C@H](N1)C(=O)OCC(C)(C)C2 [Compound 88]	7.00 to 8.00	7.00 to 8.00	7.00 to 8.00	> 5.30	6.00 to 7.00	> 8.00	> 8.00	7.00 to 8.00	7.00 to 8.00	7.00 to 8.00	–
CCn1c(-c2cccnc2[C@H](C)OC)c2c3cc(ccc31)-c1cc(O)cc(c1)C[C@H](NC(=O)[C@H](C(C)C)N(C)C(=O)N1CCN(C(=O)[C@@H]3CN3)CC1)C(=O)N1CCC[C@H](N1)C(=O)OCC(C)(C)C2 (atropisomer, axis not shown) [Compound 197]	7.00 to 8.00	6.00 to 7.00	7.00 to 8.00	–	5.00 to 6.00	7.00 to 8.00	7.00 to 8.00	7.00 to 8.00	7.00 to 8.00	7.00 to 8.00	–
CCn1c(-c2cccnc2[C@H](C)OC)c2c3cc(ccc31)-c1cc(O)cc(c1)C[C@H](NC(=O)[C@H](C(C)C)N1CC[C@@]3(CCN(C[C@H]4CN4)C3)C1=O)C(=O)N1CCC[C@H](N1)C(=O)OCC(C)(C)C2 (single isomer, unassigned) [Example 139]	7.00 to 8.00	7.00 to 8.00	7.00 to 8.00	> 5.30	5.00 to 6.00	> 8.00	> 8.00	7.00 to 8.00	7.00 to 8.00	> 8.00	–
CCn1c(-c2cnccc2COC)c2c3cc(ccc31)-c1cc(O)cc(c1)C[C@H](NC(=O)[C@H](C(C)C)N(C)C(=O)CN(C)C(=O)[C@@H]1CN1C(C)=O)C(=O)N1CCC[C@H](N1)C(=O)OCC(C)(C)C2 [Compound 35]	7.00 to 8.00	6.00 to 7.00	6.00 to 7.00	–	–	7.00 to 8.00	7.00 to 8.00	7.00 to 8.00	6.00 to 7.00	7.00 to 8.00	pEC50 [4, 11]: > 5.30; pIC50 ([5]; read-out: AsPC-1 Cell Viability IC50): 5.00 to 6.00
CCn1c(-c2cnccc2COC)c2c3cc(ccc31)-c1cc(O)cc(c1)C[C@H](NC(=O)[C@H](C(C)C)N(C)C(=O)CN1C(=O)[C@@H]3[C@H](C1=O)N3Cc1ccccc1)C(=O)N1CCC[C@H](N1)C(=O)OCC(C)(C)C2 (stereo partly drawn) [Example 55, (2S)-2-(2-((1R,5S)-6-benzyl-2,4-dioxo-3,6-diazabicyclo[3.1.0]hexan-3-yl)-N-methylacetamido)-N-((6^3S,4S)-1^1-ethyl-2^5-hydroxy-1^2-(4-(methoxymethyl)pyridin-3-yl)-10,10-dimethyl-5,7-dioxo-6^1,6^2,6^3,6^4,6^5,6^6-hexahydro-1^1H-8-oxa-1(5,3)-indola-6(1,3)-pyridazina-2(1,3)-benzenacycloundecaphane-4-yl)-3-methylbutanamide]	5.00 to 6.00	< 5.00	5.00 to 6.00	–	< 5.00	6.00 to 7.00	6.00 to 7.00	6.00 to 7.00	6.00 to 7.00	6.00 to 7.00	–
CCn1c(-c2cccnc2[C@H](C)OC)c2c3cc(ccc31)-c1cc(O)cc(c1)C[C@H](NC(=O)[C@H](C(C)C)N1CCC3(CCN(C(=O)[C@@H]4CN4)CC3)C1=O)C(=O)N1CCC[C@H](N1)C(=O)OCC(C)(C)C2 [Compound 195]	7.00 to 8.00	5.00 to 6.00	7.00 to 8.00	–	< 5.00	7.00 to 8.00	7.00 to 8.00	6.00 to 7.00	6.00 to 7.00	> 8.00	–
CCn1c(-c2cnccc2COC)c2c3cc(ccc31)-c1cc(O)cc(c1)C[C@H](NC(=O)[C@H](C(C)C)N(C)C(=O)[C@H]1CCN(C(=O)N3C[C@H]3C(=O)OC)C1)C(=O)N1CCC[C@H](N1)C(=O)OCC(C)(C)C2 [Compound 111]	6.00 to 7.00	5.00 to 6.00	6.00 to 7.00	–	< 5.00	6.00 to 7.00	6.00 to 7.00	6.00 to 7.00	6.00 to 7.00	6.00 to 7.00	–
CCn1c(-c2cccnc2[C@H](C)OC)c2c3cc(ccc31)-c1cccc(c1)C[C@H](NC(=O)[C@H](C(C)C)N1CC[C@H](CN=C=NCCOC)C1)C(=O)N1CCC[C@H](N1)C(=O)OCC(C)(C)C2 [Compound 122]	5.00 to 6.00	5.00 to 6.00	< 5.00	–	5.00 to 6.00	6.00 to 7.00	6.00 to 7.00	5.00 to 6.00	5.00 to 6.00	6.00 to 7.00	–

Source: patent publication US11739074B2, “Ras inhibitors” (Revolution Medicines, Inc., priority 2019, dated 2023)
